Measurements published in patent US9526727B2, “Inhibitors of beta-secretase” (Vitae Pharmaceuticals, Inc., priority 2012, dated 2016).

Molecular target: hERG channel (Homo sapiens (Human), UniProt Q12809)
Test: hERG-Channel Assay (Assay 3), whole-cell patch clamp
Format: cell-based
Conditions: HEK293 cells stably transfected with hERG cDNA, pH 7.4, 35° C.
Source text: hERG-Channel Assay (Assay 3)
• HEK (human embryonic kidney) 293 cells were stably transfected with hERG cDNA. • Pipettes and Solutions:
Cells were superfused with a bath solution containing (mM): NaCl (137), KCl (4.0), MgCl2 (1.0), CaCl2 (1.8), Glucose (10), HEPES (10), pH 7.4 with NaOH. Patch pipettes were made from borosilicate glass tubing using a horizontal puller and filled with pipette solution containing (mM): K-aspartate (130), MgCl2 (5.0), EGTA (5.0), K2ATP (4.0), HEPES (10.0), pH 7.2 with KOH. Resistance of the microelectrodes was in the range between 2 and 5 MΩ.
Stimulation and Recording:
Membrane currents were recorded using an EPC-10 patch clamp amplifier and PatchMaster software. hERG-mediated membrane currents were recorded at 35° C., using the whole-cell configuration of the patch-clamp technique. […] During each inter-pulse interval 4 pulses scaled down by a factor of 0.2 were recorded for a P/n leak subtraction procedure. […]
The different concentrations of the test compound were applied sequentially on each of the different cells investigated. A steady state level of baseline current was measured for at least 6 sweeps prior to the application of the first test compound concentration. […]
Peak current amplitudes were measured 3 ms after the ramp to +40 mV. […]

Chain of hERG channel (Q12809 whole entry): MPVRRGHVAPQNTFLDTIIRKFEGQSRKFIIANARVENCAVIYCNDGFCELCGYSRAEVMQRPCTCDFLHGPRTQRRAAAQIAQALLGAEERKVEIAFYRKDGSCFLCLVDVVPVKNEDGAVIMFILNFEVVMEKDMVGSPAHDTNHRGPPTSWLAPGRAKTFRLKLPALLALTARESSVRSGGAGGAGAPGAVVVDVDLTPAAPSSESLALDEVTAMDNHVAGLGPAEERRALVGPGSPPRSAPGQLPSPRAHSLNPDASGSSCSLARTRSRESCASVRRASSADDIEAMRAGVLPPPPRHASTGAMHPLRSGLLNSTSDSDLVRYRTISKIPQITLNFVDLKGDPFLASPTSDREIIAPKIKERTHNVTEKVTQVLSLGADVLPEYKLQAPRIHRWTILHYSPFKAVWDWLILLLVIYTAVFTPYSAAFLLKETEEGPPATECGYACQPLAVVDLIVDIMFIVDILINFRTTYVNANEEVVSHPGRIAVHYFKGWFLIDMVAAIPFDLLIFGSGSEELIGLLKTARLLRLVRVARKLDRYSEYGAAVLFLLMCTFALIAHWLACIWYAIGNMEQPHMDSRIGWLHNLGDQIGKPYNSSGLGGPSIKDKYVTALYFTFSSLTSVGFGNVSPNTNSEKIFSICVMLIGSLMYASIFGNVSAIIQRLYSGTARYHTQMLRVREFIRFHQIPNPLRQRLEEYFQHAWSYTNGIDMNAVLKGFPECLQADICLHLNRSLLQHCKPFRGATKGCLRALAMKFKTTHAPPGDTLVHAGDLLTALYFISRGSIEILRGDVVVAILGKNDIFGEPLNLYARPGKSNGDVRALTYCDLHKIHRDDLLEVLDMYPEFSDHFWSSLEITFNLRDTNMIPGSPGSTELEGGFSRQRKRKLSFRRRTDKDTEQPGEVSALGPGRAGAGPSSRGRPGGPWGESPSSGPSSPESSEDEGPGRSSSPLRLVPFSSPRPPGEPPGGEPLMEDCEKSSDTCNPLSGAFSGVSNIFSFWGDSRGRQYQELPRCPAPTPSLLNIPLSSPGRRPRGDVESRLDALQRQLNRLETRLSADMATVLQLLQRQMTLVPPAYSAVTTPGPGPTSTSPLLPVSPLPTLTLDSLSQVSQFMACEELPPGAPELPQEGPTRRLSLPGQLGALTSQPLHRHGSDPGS

Structure (SMILES): COC1CCC2(CC1)Cc1ccc(C#N)cc1C21N=C(N)N(CC2CCCO2)C1=O (stereo not shown)
- inhibition at 10 µM: 16%
